# From patent US20170265463A1, “SPORICIDAL COMPOSITION” (CASE WESTERN RESERVE UNIVERSITY, priority 2016, published 2017)
# Key:
# spores = experiment: Other antibacterial compounds in combination with acidified ethanol (sporicidal activity); assay type: cell-based; conditions: compared with addition of peracetic acid
# [1] = tested on: Clostridium difficile spores (VA11, VA17, ATCC 43593); experiment: Effect of altered pH on sporicidal activity of alcohol (spore suspension, log10CFU reduction); assay type: cell-based; conditions: 70% alcohol acidified to pH<2 (pH 1.5), 5 minutes, room temperature (FIG. 7A)
# Protocol: (room temperature). B. subtilis, B. thuringiensis, and three strains of C. difficile spores were tested (described above in Spore Strains and Growth Conditions). The reaction was quenched by neutralizing 1:1 in Dey-Engley neutralization broth (BD Biosciences, San Jose, Calif., USA). Neutralized samples were serial diluted in deionized water, drop-plated, and cultured as described above in Spore Strains and Growth Conditions.
# The reaction was quenched by neutralizing 1:1 in Dey-Engley neutralization broth (BD Biosciences, San Jose, Calif.). Neutralized samples were serially diluted in deionized water, drop-plated, and cultured as described previously. To increase the sensitivity of enumeration for samples with high levels of spore killing, 1 mL of the neutralized spore suspensions were spread-plated.
# [2] = tested on: C. difficile (VA17) spores; experiment: Dipicolinic acid (DPA) release, terbium fluorescence; assay type: cell-based, Clostridium difficile; conditions: room temperature, within 10 minutes; compared to water, 70% ethanol and pH 1.5 water
# Protocol: (§1) To assess whether acidified ethanol truly kills spores or only renders them incapable of germination, recovery of killed spores was assessed by incubation in lysozyme or dodecylamine which bypass germinant receptors. To assess whether acidified ethanol kills spores through alteration in the permeability of the dormant spores' inner membrane barrier, we evaluated whether spore killing occurs in parallel with dipicolinic acid (DPA) release. C. difficile (VA17), B. thuringiensis and B. subtilis spores were suspended in water, water altered to pH 1.5, 70% ethanol, 70% ethanol altered to pH 1.5, 3.0 or 3.0 with increased ionic strength, and 1 mM dodecylamine (induces DPA release in spores of several species). After 1, 5, and 10 minutes of incubation at room temperature (about 22° C.), DPA release was assessed as previously described. […] Fluorescence was measured using a plate reader (SpectraMaxM2, Bucher Biotec, Basel, Switzerland) with the following settings: time resolved fluorescence (delay 50 μs, interval 1200 μs) at an excitation wavelength of 272 nm, emission wavelength of 545 nm, and 5 endpoint readings per sample at 22° C. To determine percent DPA release, relative fluorescence units (RFU) of test solutions were compared to the RFU of total spore DPA content (supernatant of 10^7 CFU spores suspended in water boiled for 30 minutes) as previously described.
# [3] = tested on: toxigenic C. difficile spores; design: species or system Clostridium difficile; conditions: applied as a liquid or wipe
# Text: Reduction of toxigenic C. difficile spores inoculated on gloves of volunteers was compared after 30 or 60 second exposures to the sporicidal ethanol formulation, 70% ethanol, and 1:10 or 1:100 dilutions of household bleach; the solutions were applied both as a liquid solution and as a wipe. We also examined the efficacy of the sporicidal ethanol formulation for elimination of spore contamination from the gloves of healthcare personnel interacting with C. difficile infection (CDI) patients or their environment. To determine the potential for the disinfectants to damage clothing, the solutions were applied to pieces of colored cloth.
# B. subtilis spores [4] = conditions: 70% ethanol, no pH alteration, 80° C., 60 minutes
# Protocol: (§2) To determine the effect of elevated temperature on the sporicidal efficacy of ethanol, ten microliters of spores (˜10^6 CFU) were incubated in one mL of 70% ethanol or deionized water at about 22° C. (room temperature), 55° C. or 80° C. The pH was not altered for these experiments. B. subtilis, B. thuringiensis, and VA11 and VA17 C. difficile spores were tested (described above in Spore Strains and Growth Conditions). After 0, 5, 10, 20, 30 and 60 minutes of incubation at the appropriate temperature, aliquots of each spore suspension were serial diluted in deionized water, drop-plated, and cultured as described above in Spore Strains and Growth Conditions. Log10CFU reduction of spores was determined by calculating the difference in log10CFU recovered from baseline (spores incubated in water) and experimental groups (spores incubated in ethanol).
# [5] = tested on: C. difficile spores (strains VA11 and VA17); conditions: 70% ethanol, no pH alteration
# Protocol: as §2
# B. thuringiensis spores [6] = conditions: 70% ethanol, no pH alteration, 80° C., 60 minutes
# Protocol: as §2
# B. subtilis spores [7] = conditions: room temperature, 1, 5, 10 minutes
# Protocol: as §1
# B. thuringiensis spores [8] = conditions: room temperature, 1, 5, 10 minutes
# Protocol: as §1
# B. subtilis spores [9] = experiment: Effect of addition of dilute peracetic acid on sporicidal activity of acidified ethanol; assay type: cell-based, Bacillus subtilis; conditions: peracetic acid alone at 450, 650 and 1500 ppm, 3 minute dwell time
# Protocol: (§3) The effect of addition of peracetic acid on activity of acidified ethanol against C. difficile (VA17) and B. subtilis was tested at room temperature (about 22° C.). The pH of specified test solutions was adjusted to 2.5 or 1.5 with hydrochloric acid (HCl). Ten microliters of spores (about 10^6 CFU) were inoculated into one mL of water (baseline), pH adjusted ethanol, peracetic acid at 450, 650, or 1500 ppm, pH adjusted peracetic acid at 450 and 650 ppm, ethanol plus peracetic acid at 450 and 650 ppm, and pH adjusted ethanol plus peracetic acid at 450 and 650 ppm. Spore suspensions were incubated at room temperature for three minutes. The reaction was quenched by neutralizing 1:1 in Dey-Engley neutralization broth (BD Biosciences). […] Experiments were performed in triplicate.
# (§4) The effect of the addition of dilute PAA on the activity of acidified ethanol against C. difficile strain VA17 and B. subtilis was tested at 22° C. The pH of specified test solutions was adjusted to 2.5 or 1.5 with hydrochloric acid. Ten μL of spores (˜10^6 CFU) were inoculated into one mL of water (baseline), pH adjusted ethanol, PAA at 450, 650, or 1500 ppm, pH adjusted PAA at 450 and 650 ppm, ethanol plus PAA at 450 and 650 ppm, and pH adjusted ethanol plus PAA at 450 and 650 ppm and incubated for 3 minutes. The reaction was quenched by neutralizing 1:1 in Dey-Engley neutralization broth. […]
# [10] = in-use concentrations of surface disinfectants (~1500 ppm); cited from earlier work
# [11] = tested on: C. difficile (VA17) spores; experiment: Effect of addition of dilute peracetic acid on sporicidal activity of acidified ethanol; assay type: cell-based, Clostridium difficile; conditions: peracetic acid alone at 450, 650 and 1500 ppm, 3 minute dwell time
# Protocol: as §3, §4
# [12] = tested on: non-toxigenic C. difficile spores (ATCC 43593); experiment: Reduction of C. difficile spores on hands of volunteers (fingerpad method, modified ASTM E 2276-10); assay type: in vivo, Clostridium difficile; conditions: Example 3; P>0.05
# Protocol: A modification of the “Standard Test Method for Determining the Bacteria-Eliminating Effectiveness of Hygienic Handwash and Handrub Agents Using the Fingerpads of Adults” (American Society for Testing and Materials E 2276-10) was used to determine the efficacy of test solutions against non-toxigenic C. difficile spores. Each fingerpad of both hands were contaminated with 10 μL of a liquid inoculum containing 6 log10CFU of ATCC 43593 spores. The fingerpads were rubbed together until the inoculum was dry. Hand contamination levels were measured using the fingerpad sampling method. In brief, the fingerpads of each hand were rubbed with slight friction against the bottom of a 150 mm×15 mm Petri dish filled with 25 mL of Dey-Engley neutralizer (BD Biosciences, San Jose, Calif., USA) for 30 seconds. […] Log10 reductions were calculated by subtracting log10 CFU recovered after hand hygiene treatment from log10 CFU recovered from hands without treatment.
# A crossover design was used such that each volunteer was exposed to three of the disinfection procedures. […] The person reading the plates to quantify spore counts was blinded to the test product that was used. […]
# Similar experiments were conducted to assess the efficacy of dilute peracetic acid-containing solutions and acidified ethanol solutions at 42° C. […] Reductions in spore counts were then determined as described previously. […]
smiles,measurement,setting,value
[O][Cl+][O-] [chlorine dioxide],Enhancement of sporicidal activity on addition to acidified ethanol,spores,did not result in similar enhancement of sporicidal activity
OCl [sodium hypochlorite],Enhancement of sporicidal activity on addition to acidified ethanol,spores,did not result in similar enhancement of sporicidal activity
CC(C)O [2-propanol],Sporicidal activity against C. difficile spores on acidification of the alcohol,[1],induced sporicidal activity
II [iodine],Enhancement of sporicidal activity on addition to acidified ethanol,spores,did not result in similar enhancement of sporicidal activity
[Cu] [copper],Enhancement of sporicidal activity on addition to acidified ethanol,spores,did not result in similar enhancement of sporicidal activity
CCCO [1-propanol],Sporicidal activity against C. difficile spores on acidification of the alcohol,[1],induced sporicidal activity
"CCO [70% ethanol, ethanol]",DPA release from C. difficile spores,[2],low levels of baseline DPA release
same,Reduction in spores on gloves,[3],< 1 log
same,Log10CFU reduction of B. subtilis spores,B. subtilis spores [4],> 4 log10CFU
same,Log10CFU reduction of C. difficile spores,"[5]; 55° C., 60 minutes",1 log10CFU
same,Detectable C. difficile spores,"[5]; 80° C., 10 minutes",no C. difficile spores were detectable
same,Log10CFU reduction of B. thuringiensis spores,B. thuringiensis spores [6],> 5 log10CFU
same,DPA release from B. subtilis spores,B. subtilis spores [7],did not
same,DPA release from B. thuringiensis spores,B. thuringiensis spores [8],low levels of baseline DPA release
CC(=O)OO [peracetic acid],Reduction of B. subtilis spores,B. subtilis spores [9],in a dose-dependent fashion
same,Skin irritation,[10],does not cause skin irritation
same,Reduction of C. difficile spores,[11],in a dose-dependent fashion
same,Reduction in C. difficile spores on hands compared with soap and water hand wash,[12],not significantly different
